Experimental data taken from patent US9340590B2 (priority 2011, dated 2016).
Like-named read-outs stand apart in the source and are kept apart here. Positions of bridges follow the written chain, without caps; N, C: chain ends. Residues, ends and D or L forms follow the SMILES beside them.

Experiments:
hNav1.3 = hNav1.3 (Homo sapiens, UniProt Q9NY46); assay: cell-based; details: IonWorks Quattro, read-out: IWQ Use Nav1.3
hNav1.5 = hNav1.5 (Homo sapiens, UniProt Q14524); assay: cell-based
Chain of hNav1.5 (Q14524 whole entry, looked up): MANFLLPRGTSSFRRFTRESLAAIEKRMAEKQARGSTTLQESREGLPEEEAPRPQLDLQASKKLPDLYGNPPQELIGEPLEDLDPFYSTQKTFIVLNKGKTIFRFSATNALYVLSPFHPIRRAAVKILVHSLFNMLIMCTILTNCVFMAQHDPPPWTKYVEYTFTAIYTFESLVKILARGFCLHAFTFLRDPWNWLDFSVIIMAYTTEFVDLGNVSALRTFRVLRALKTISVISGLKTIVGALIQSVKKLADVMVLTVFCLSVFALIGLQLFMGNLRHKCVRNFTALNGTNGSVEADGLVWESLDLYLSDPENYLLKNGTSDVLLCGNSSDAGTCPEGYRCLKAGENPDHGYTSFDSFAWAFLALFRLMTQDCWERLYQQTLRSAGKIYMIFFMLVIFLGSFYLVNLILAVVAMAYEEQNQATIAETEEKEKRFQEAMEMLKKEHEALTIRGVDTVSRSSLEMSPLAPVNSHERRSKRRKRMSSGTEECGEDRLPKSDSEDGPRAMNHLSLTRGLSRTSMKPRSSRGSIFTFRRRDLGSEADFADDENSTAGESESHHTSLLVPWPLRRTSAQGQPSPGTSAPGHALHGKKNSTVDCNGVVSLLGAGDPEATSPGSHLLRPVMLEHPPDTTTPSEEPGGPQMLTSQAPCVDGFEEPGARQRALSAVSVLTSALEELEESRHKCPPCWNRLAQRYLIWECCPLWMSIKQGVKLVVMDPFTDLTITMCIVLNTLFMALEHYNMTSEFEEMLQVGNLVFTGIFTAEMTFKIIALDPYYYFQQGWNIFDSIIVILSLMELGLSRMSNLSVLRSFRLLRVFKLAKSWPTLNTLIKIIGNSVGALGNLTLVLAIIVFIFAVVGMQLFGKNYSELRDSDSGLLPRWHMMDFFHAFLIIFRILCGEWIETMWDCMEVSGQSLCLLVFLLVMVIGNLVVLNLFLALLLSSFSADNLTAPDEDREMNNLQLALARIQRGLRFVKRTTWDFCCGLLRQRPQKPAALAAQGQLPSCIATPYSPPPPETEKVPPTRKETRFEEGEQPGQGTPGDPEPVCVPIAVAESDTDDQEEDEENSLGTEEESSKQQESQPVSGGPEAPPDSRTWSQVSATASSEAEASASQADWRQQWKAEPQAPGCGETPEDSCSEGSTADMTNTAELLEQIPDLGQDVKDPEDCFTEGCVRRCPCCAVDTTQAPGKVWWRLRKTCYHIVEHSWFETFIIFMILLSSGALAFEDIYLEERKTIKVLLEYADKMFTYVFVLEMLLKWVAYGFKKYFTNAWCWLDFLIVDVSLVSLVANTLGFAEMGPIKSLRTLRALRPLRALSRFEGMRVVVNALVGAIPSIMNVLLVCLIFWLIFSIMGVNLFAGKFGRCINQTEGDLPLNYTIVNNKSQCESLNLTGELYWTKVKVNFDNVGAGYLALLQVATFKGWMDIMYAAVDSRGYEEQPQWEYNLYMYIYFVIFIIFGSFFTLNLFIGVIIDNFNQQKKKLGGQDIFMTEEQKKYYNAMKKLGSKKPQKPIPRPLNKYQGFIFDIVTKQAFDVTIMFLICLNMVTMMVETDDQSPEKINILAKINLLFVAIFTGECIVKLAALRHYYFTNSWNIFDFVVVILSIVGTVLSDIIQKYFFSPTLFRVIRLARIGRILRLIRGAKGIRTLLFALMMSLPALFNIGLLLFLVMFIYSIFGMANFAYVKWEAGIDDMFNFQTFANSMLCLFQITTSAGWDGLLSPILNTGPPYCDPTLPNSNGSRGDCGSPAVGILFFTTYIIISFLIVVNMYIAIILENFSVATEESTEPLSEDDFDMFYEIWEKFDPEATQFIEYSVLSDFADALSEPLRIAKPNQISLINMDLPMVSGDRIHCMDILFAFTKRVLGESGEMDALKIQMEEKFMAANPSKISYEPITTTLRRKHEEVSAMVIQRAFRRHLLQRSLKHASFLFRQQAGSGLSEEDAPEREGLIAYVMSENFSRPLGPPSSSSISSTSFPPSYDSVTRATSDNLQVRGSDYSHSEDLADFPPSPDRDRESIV

Chain of hNav1.3 (Q9NY46 whole entry, looked up): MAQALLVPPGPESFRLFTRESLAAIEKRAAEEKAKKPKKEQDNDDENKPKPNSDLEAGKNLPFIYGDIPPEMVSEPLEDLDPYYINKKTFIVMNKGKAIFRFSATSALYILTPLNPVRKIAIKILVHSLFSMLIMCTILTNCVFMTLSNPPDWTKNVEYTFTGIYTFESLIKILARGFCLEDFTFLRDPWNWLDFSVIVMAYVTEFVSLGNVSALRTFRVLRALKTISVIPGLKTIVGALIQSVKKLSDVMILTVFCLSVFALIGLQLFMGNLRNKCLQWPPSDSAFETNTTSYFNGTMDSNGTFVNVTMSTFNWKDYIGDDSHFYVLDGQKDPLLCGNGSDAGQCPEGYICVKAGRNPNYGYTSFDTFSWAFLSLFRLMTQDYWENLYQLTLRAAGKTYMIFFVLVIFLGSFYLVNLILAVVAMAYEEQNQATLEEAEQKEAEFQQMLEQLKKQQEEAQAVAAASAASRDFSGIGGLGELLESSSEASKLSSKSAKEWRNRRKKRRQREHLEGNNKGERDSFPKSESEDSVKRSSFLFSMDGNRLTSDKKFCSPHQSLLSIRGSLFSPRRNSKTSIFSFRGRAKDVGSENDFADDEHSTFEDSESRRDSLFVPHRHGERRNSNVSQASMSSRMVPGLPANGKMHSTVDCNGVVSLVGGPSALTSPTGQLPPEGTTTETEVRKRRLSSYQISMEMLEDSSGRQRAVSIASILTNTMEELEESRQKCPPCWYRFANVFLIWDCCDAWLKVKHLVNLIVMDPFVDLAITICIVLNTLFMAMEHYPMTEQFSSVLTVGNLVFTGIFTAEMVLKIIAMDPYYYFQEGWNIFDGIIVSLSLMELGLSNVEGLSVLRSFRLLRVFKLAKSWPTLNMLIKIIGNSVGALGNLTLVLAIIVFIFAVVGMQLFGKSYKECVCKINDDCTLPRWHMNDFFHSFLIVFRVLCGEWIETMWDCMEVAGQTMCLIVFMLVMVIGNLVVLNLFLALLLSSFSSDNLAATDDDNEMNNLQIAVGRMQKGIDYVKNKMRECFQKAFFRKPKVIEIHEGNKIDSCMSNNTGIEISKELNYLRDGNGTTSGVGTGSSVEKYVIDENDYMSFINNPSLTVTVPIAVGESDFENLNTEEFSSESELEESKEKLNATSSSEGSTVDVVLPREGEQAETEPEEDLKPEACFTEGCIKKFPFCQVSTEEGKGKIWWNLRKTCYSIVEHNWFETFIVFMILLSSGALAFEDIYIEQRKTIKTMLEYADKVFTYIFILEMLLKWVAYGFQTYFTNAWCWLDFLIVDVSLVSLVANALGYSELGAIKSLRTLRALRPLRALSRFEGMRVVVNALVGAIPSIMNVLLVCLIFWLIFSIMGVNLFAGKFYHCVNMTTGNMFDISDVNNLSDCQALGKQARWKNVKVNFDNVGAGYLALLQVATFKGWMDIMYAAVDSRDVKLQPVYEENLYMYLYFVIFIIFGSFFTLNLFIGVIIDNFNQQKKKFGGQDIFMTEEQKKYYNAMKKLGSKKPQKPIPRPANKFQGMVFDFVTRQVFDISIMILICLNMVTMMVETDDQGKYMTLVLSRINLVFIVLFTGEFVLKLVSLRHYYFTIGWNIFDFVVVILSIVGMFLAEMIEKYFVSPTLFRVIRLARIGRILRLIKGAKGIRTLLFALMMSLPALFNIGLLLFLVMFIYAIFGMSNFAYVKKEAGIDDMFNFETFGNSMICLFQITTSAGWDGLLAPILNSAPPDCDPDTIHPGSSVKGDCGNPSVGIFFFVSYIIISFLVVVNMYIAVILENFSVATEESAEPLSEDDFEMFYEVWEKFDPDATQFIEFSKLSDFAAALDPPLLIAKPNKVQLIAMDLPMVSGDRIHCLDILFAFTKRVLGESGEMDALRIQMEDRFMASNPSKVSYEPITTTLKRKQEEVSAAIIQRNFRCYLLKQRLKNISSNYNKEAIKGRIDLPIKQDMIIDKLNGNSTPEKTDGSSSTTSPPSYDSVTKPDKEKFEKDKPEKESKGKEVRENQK

Compound	IC50 (hNav1.3; clamped to −110 mV, depolarized to −10 mV, 5 min after compound, n=2) [µM]	IC50 (hNav1.5; IonWorks Quattro, clamped to −110 mV, depolarized to −10 mV, 5 min after compound, n=2, read-out: IWQ Use Nav1.5) [µM]	IC50 (hNav1.3; Use) [µM]	IC50 (hNav1.5; IonWorks Quattro, Use, read-out: IWQ Use Nav1.5) [µM]	IC50 (hNav1.5; IWQ Use Nav1.5 (μM)) [µM]
CC[C@H](C)[C@@H]1NC(=O)[C@@H]2CSSC[C@@H]3NC(=O)[C@H](C(C)C)NC(=O)[C@H](CC(C)C)NC(=O)[C@H](CC(N)=O)NC(=O)[C@@H]4CCCN4C(=O)[C@H](CCCNC(=N)N)NC(=O)[C@H](CSSC[C@H](NC(=O)[C@@H](N)CC(=O)O)C(=O)N[C@@H](CC(C)C)C(=O)NCC(=O)N[C@@H](Cc4ccccc4)C(=O)N[C@@H](CCC(=O)O)C(=O)N[C@@H](CCCNC(=N)N)C(=O)N[C@@H](CCCCN)C(=O)N2)NC(=O)[C@H](CSSC[C@@H](C(=O)N[C@@H](CCCCN)C(=O)N[C@@H](Cc2ccc(O)cc2)C(=O)N[C@H](C(=O)N[C@@H](Cc2ccccc2)C(N)=O)C(C)C)NC(=O)[C@H](Cc2c[nH]c4ccccc24)NC(=O)[C@H](CCCCN)NC(=O)[C@H](Cc2cnc[nH]2)NC(=O)[C@H]([C@@H](C)O)NC(=O)[C@H](CCCNC(=N)N)NC(=O)[C@H](CO)NC3=O)NC(=O)[C@H](CCCCN)NC(=O)[C@H](CC(=O)O)NC(=O)[C@H](CC(N)=O)NC(=O)[C@H](CC(=O)O)NC(=O)[C@@H]2CCCN2C1=O [SEQ ID NO: 144] (H-DCLGFERKCIPDNDKCCRPNLVCSRTHKWCKYVF-NH2; disulfide 2-17, 9-23, 16-30)	20.4	9.39	–	–	–
CSCC[C@@H]1NC(=O)[C@H](Cc2ccccc2)NC(=O)CNC(=O)[C@H](CC(C)C)NC(=O)[C@@H](NC(=O)[C@@H](N)CC(=O)O)CSSC[C@@H]2NC(=O)[C@@H]3CSSC[C@@H](C(=O)N[C@@H](CCCCN)C(=O)N[C@@H](Cc4ccc(O)cc4)C(=O)N[C@H](C(=O)N[C@@H](Cc4ccccc4)C(N)=O)C(C)C)NC(=O)[C@H](Cc4c[nH]c5ccccc45)NC(=O)[C@H](CCCCN)NC(=O)[C@H](Cc4cnc[nH]4)NC(=O)[C@H]([C@@H](C)O)NC(=O)[C@H](CCCNC(=N)N)NC(=O)[C@H](CO)NC(=O)[C@H](CSSC[C@H](NC(=O)[C@H](CCCCN)NC(=O)[C@H](CCCNC(=N)N)NC1=O)C(=O)N[C@@H](CCC(=O)O)C(=O)N1CCC[C@H]1C(=O)N[C@@H](CC(=O)O)C(=O)N[C@@H](CC(N)=O)C(=O)N[C@@H](CC(=O)O)C(=O)N[C@@H](CCCCN)C(=O)N3)NC(=O)[C@H](C(C)C)NC(=O)[C@H](CC(C)C)NC(=O)[C@H](CC(N)=O)NC(=O)[C@@H]1CCCN1C(=O)[C@H](CCCNC(=N)N)NC2=O [SEQ ID NO: 146, [Glu10]GpTx-1] (H-DCLGFMRKCEPDNDKCCRPNLVCSRTHKWCKYVF-NH2; disulfide 2-17, 9-23, 16-30)	–	–	0.15	9.55	–
CC[C@H](C)[C@@H]1NC(=O)[C@@H]2CSSC[C@@H]3NC(=O)[C@H](C(C)C)NC(=O)[C@H](CC(C)C)NC(=O)[C@H](CC(N)=O)NC(=O)[C@@H]4CCCN4C(=O)[C@H](CCCNC(=N)N)NC(=O)[C@H](CSSC[C@H](NC(=O)[C@@H](N)CC(=O)O)C(=O)N[C@@H](CC(C)C)C(=O)NCC(=O)N[C@@H](Cc4ccccc4)C(=O)N[C@@H](CCSC)C(=O)N[C@@H](CCCNC(=N)N)C(=O)N[C@@H](CCCCN)C(=O)N2)NC(=O)[C@H](CSSC[C@@H](C(=O)N[C@@H](CCCCN)C(=O)N[C@@H](Cc2ccc(O)cc2)C(=O)N[C@H](C(=O)N[C@@H](Cc2ccccc2)C(N)=O)C(C)C)NC(=O)[C@H](Cc2c[nH]c4ccccc24)NC(=O)[C@H](CCCCN)NC(=O)[C@H](Cc2cnc[nH]2)NC(=O)[C@H]([C@@H](C)O)NC(=O)[C@H](CCCNC(=N)N)NC(=O)[C@H](CO)NC3=O)NC(=O)[C@H](CCCCN)NC(=O)[C@H](CC(=O)O)NC(=O)[C@H](CC(N)=O)NC(=O)[C@H](CC(=O)O)NC(=O)[C@H](CCC(=O)O)NC1=O [SEQ ID NO: 147, [Glu11]GpTx-1] (H-DCLGFMRKCIEDNDKCCRPNLVCSRTHKWCKYVF-NH2; disulfide 2-17, 9-23, 16-30)	–	–	0.21	–	15.6
